Results taken from patent US20230058954A1, “APREPITANT FOR USE IN THE TOPICAL TREATMENT OF FACIAL NEURALGIA” (ASSISTANCE PUBLIQUE - HOPITAUX DE PARIS, priority 2020, published 2023).

Tested on: patients suffering from facial neuralgia
Experiment: Earlier treatments of the same patients (not relieved by)
Assay type: in vivo, human
[1] = Patient 3, post-zooster facial neuralgia

Compound	relief of pain by earlier treatment (Patient 2, facial neuralgia)	relief of pain by earlier treatment [1]	relief of pain by earlier treatment (Patient 1, trigeminal neuralgia)
NCC1(CC(=O)O)CCCCC1 [gabapentin]	No relieved	–	–
COc1cccc(C2(O)CCCCC2CN(C)C)c1 (stereo not drawn) [tramadol]	–	No relieved	–
CN(C)CCC=C1c2ccccc2CCc2ccccc21 [amitriptyline]	No relieved	No relieved	–
CNCC[C@H](Oc1cccc2ccccc12)c1cccs1 [duloxetine]	No relieved	–	–
CNC1(c2ccccc2Cl)CCCCC1=O (stereo not drawn) [ketamine]	–	–	No relieved
CC(C)C[C@H](CN)CC(=O)O [pregabalin]	No relieved	No relieved	–
CCC(=O)C(CC(C)N(C)C)(c1ccccc1)c1ccccc1 (stereo not drawn) [methadone]	No relieved	–	–
